The values below come from patent publication US5585095A, “Method to enhance thrombomodulin APC generation using cationic proteins” (Regents of the University of Minnesota, priority 1993, dated 1996).

For one data set, the target named is T1, full-length rabbit TM (Oryctolagus cuniculus, UniProt Q8HZ48).
T1 construct: full-length rabbit TM purified from lungs; from tissue; host or cells: rabbit lung (purified after N. L. Esmon et al. 1982)
In words: APC generation by soluble full-length rabbit TM with thrombin and protein C (chromogenic S-2366). The following applies: 2 nM TM, 500 nM protein C, 1 mM Ca2+, 2 nM THR, 10 min, 37° C., over baseline. It counts as biochemical. On the procedure: For each type of cationic protein or modification thereof to be tested, 2 nM TM (full-length rabbit TM) and 500 nM protein C are incubated together in the presence of 1 mM (i.e., physiologic) Ca^2+ with either no cationic protein (for a baseline determination) or […] of the cationic protein. The generation of APC is initiated by the addition of 2 nM THR in 50 mM of the buffer Tris, 100 mM NaCl, pH 7.4 at 37° C. The reaction is allowed to proceed for 10 minutes, then quenched by the addition of AT III (antithrombin obtained from Enzyme Research Laboratories, Inc., South Bend, Ind.) and EDTA. […] A cationic protein that can be used in the methods and compositions of the present invention include those that show at least a two-fold increase in APC production, relative to a baseline of APC generated without the cationic protein.
Dose-response studies were then performed with increasing amounts of PF4 to assay its effect upon the ability of three TM preps to generate APC from protein C. […] See, C.
For each type of TM, 2 nM TM and 500 nM protein C were incubated together in the presence of 1 mM (i.e., physiologic) Ca^2+ with or without PF4, and the generation of APC initiated by the addition of 2 nM THR in 50 mM Tris, 100 mM NaCl, pH 7.4 at 37° C. The reaction was allowed to proceed for 10 minutes, then quenched by the addition of AT III (obtained from Enzyme Research Laboratories, Inc., South Bend, Ind.) and EDTA. […] Negative controls of plastic wells treated in a parallel fashion except that TM was omitted. Values obtained from these controls were then subtracted from the rates measured for wells containing monolayers.

A further data set deals with GAG- TM. Description: APC generation by recombinant GAG- TM with thrombin and protein C (chromogenic S-2366). It counts as biochemical, human. On the procedure: Human PF4 was purified from outdated platelets by THR stimulation, NH4 SO4 precipitation, heparin affinity chromatography, and Scphadex G-100 chromatography using a technique described in T. F. Deuel et al., Proc. Natl. Acad. Sci. USA, 74, 2256-2258 (1977), which is incorporated herein by reference. Dose-response studies were then performed with increasing amounts of PF4 to assay its effect upon the ability of three TM preps to generate APC from protein C. The three TM preps employed were: a) full-length rabbit TM purified from lungs (see, N. L. Esmon et al., J. Biol. Chem., 257, 859-864 (1982)); and b) two differentially glycated versions of a recombinantly produced polypeptide fragment of human TM encompassing the entire extracellular domain ([amino acids 1-497], which includes the serine 492 glycosylation site) expressed in Chinese Hamster Ovary cells, provided by Berlex Biosciences (Richmond, Calif.). See, C. B. Glaser et al., J. Clin. Invest., 90, 2565-2573 (1992). […]
The reaction was allowed to proceed for 10 minutes, then quenched by the addition of AT III (obtained from Enzyme Research Laboratories, Inc., South Bend, Ind.) and EDTA. APC was quantified spectrophotometrically with the chromogenic substrate S-2366 (obtained from Kabi Vitrum, Franklin, Ohio). […] Values obtained from these controls were then subtracted from the rates measured for wells containing monolayers. […]

Data set [1] has as its target T2, GAG+ TM (Homo sapiens, UniProt P07204).
T2 construct: encompassing the entire extracellular domain ([amino acids 1-497], which includes the serine 492 glycosylation site); host or cells: Chinese Hamster Ovary cells
Description: APC generation by recombinant GAG+ TM with thrombin and protein C (chromogenic S-2366). The following applies: for acceleratory effect upon APC generation by thrombomodulin (GAG+ TM): conditions of Example 1, GAG+ TM, FIG. 4. It is filed as biochemical. How it is done: Human PF4 was purified from outdated platelets by THR stimulation, NH4 SO4 precipitation, heparin affinity chromatography, and Scphadex G-100 chromatography using a technique described in T. F. Deuel et al., Proc. Natl. Acad. Sci. USA, 74, 2256-2258 (1977), which is incorporated herein by reference. Dose-response studies were then performed with increasing amounts of PF4 to assay its effect upon the ability of three TM preps to generate APC from protein C. The three TM preps employed were: a) full-length rabbit TM purified from lungs (see, N. L. Esmon et al., J. Biol. Chem., 257, 859-864 (1982)); and b) two differentially glycated versions of a recombinantly produced polypeptide fragment of human TM encompassing the entire extracellular domain ([amino acids 1-497], which includes the serine 492 glycosylation site) expressed in Chinese Hamster Ovary cells, provided by Berlex Biosciences (Richmond, Calif.). See, C. B. Glaser et al., J. Clin. Invest., 90, 2565-2573 (1992). These polypeptides were produced in two chromatographically separable forms: the first has an apparent molecular weight of 116 kD and contains a chondroitinase ABC-cleavable GAG moiety (henceforth referred to GAG+ TM); the second is an unglycated version of the same polypeptide with apparent molecular weight of 95 kD, henceforth referred to as GAG- TM.
(§1) For each type of TM, 2 nM TM and 500 nM protein C were incubated together in the presence of 1 mM (i.e., physiologic) Ca^2+ with or without PF4, and the generation of APC initiated by the addition of 2 nM THR in 50 mM Tris, 100 mM NaCl, pH 7.4 at 37° C. The reaction was allowed to proceed for 10 minutes, then quenched by the addition of AT III (obtained from Enzyme Research Laboratories, Inc., South Bend, Ind.) and EDTA. APC was quantified spectrophotometrically with the chromogenic substrate S-2366 (obtained from Kabi Vitrum, Franklin, Ohio). The spectrophotometric analysis involved the conversion of the chromogenic substrate at […] in a 37° C. spectrophotometer cell based on the initial rate of optical density change. Negative controls of plastic wells treated in a parallel fashion except that TM was omitted. Values obtained from these controls were then subtracted from the rates measured for wells containing monolayers.
The conditions used were identical to those listed in Example 1 except GAG+ TM obtained from Berlex Biosciences was used for all experiments.

The next data set has as its system THR. In words: TM-independent activation of protein C by THR (control). It is filed as biochemical. The following applies: controls, not shown. On the procedure: as §1
(§2) PF4 accelerates APC generation by full-length rabbit TM and GAG- TM 4-fold, and that of GAG+ TM 25-fold. GAG+ TM was also accelerated 10-fold by PF4 in the presence of 15% defibrinated plasma. […] The increase in APC was not an artifact of PF4 influencing the catalytic activity of APC towards chromogenic substrate.

Data set [2] has as its system TM. In words: APC generation in the absence of added THR (control). It is filed as biochemical. The following applies: PF4 alone or PF4 together with TM. How it is done:
as §1, with “The” for “For each type of TM, 2 nM TM and 500 nM protein C were incubated together in the presence of 1 mM (i.e., physiologic) Ca^2+ with or without PF4, and the generation of APC initiated by the addition of 2 nM THR in 50 mM Tris, 100 mM NaCl, pH 7.4 at 37° C. The”
as §2

For data set [3], the system named is cell-surface TM on porcine aortic endothelial cell (PAEC) monolayers. In words: APC generation by porcine aortic endothelial cell monolayers. It counts as cell-based. On the procedure:
In these experiments, 1 cm^2 monolayers of endothelial cells were overlaid with PBS buffer containing 500 nM PC and 1 mM Ca^2+, then further supplemented with either PBS or PBS with 15% (v/v) bovine serum. To these wells were then added increasing concentrations of purified native PF4. The resultant mixture was incubated for 20 minutes after which either 2 nM (PBS) or 10 nM THR (15% serum) was added and the generation of APC allowed to proceed for 45 minutes prior to quenching with addition of AT III and EDTA.

In a further data set the test system is APC. Description: Detection of known amounts of APC in 15% serum by chromogenic substrate (control). It counts as biochemical. The following applies: known amounts of APC added to 15% serum, not shown. On the procedure: In addition to stimulating APC generation by soluble forms of TM in buffers, PF4 also stimulates APC generation of cell-surface TM on porcine aortic endothelial cell (PAEC) monolayers in plasmatic conditions. In these experiments, 1 cm^2 monolayers of endothelial cells were overlaid with PBS buffer containing 500 nM PC and 1 mM Ca^2+, then further supplemented with either PBS or PBS with 15% (v/v) bovine serum. To these wells were then added increasing concentrations of purified native PF4. The resultant mixture was incubated for 20 minutes after which either 2 nM (PBS) or 10 nM THR (15% serum) was added and the generation of APC allowed to proceed for 45 minutes prior to quenching with addition of AT III and EDTA. Supernatants were then centrifuged to remove cellular debris and APC generation quantified using chromogenic substrate S-2366 as described above. In the absence of added serum, there is a 2 1/2-fold increase in APC generation with an optimum at 3.3 μg/ml of PF4, but decreasing APC generation with higher concentrations. In contrast, in the presence of 15% serum, the baseline APC generation is much lower despite the presence of higher concentrations of THR. There is a PF4 dose-dependent increase in APC generation with an optimum at 33 μg/ml PF4, at which point APC generation is 10-fold higher than baseline. […]

Data set [4] concerns TM. In words: APC formation with exogenous TM in combination with PF4. The following applies: pharmacological (exogenous) TM in combination with purified naturally occurring or recombinant PF4. The source says:
The particularly preferred compositions of the present invention include those containing purified PF4, or a modification thereof, and a thrombomodulin preparation, such as purified soluble GAG+ thrombomodulin. Such compositions display particularly high levels of APC formation, and thus particularly effective levels of anticoagulation. For example, with the administration of a pharmacological form of TM, i.e., an exogenous form, in combination with purified naturally occurring or recombinant PF4, there is a 3-8 fold increase in the amount of APC formed, as compared to the administration of PF4 alone using endogenous forms of TM. This is particularly advantageous because TM and PF4, individually or together, have a higher therapeutic index than does heparin, which is currently used for anticoagulation therapy.

The target in data set [5] is T2, GAG+ TM. Description: APC generation by recombinant GAG+ TM with thrombin and protein C (chromogenic S-2366). It counts as biochemical.
Data set [6] relates to purified, soluble rabbit TM. The note with it: polyanions added to MBP-inhibited TM; cited from earlier work.
The mark [7] stands for this setting: 2 nM TM, 500 nM protein C, 1 mM Ca2+, 2 nM THR, 10 min, 37° C., over baseline.

T2 sequence (P07204 19-515): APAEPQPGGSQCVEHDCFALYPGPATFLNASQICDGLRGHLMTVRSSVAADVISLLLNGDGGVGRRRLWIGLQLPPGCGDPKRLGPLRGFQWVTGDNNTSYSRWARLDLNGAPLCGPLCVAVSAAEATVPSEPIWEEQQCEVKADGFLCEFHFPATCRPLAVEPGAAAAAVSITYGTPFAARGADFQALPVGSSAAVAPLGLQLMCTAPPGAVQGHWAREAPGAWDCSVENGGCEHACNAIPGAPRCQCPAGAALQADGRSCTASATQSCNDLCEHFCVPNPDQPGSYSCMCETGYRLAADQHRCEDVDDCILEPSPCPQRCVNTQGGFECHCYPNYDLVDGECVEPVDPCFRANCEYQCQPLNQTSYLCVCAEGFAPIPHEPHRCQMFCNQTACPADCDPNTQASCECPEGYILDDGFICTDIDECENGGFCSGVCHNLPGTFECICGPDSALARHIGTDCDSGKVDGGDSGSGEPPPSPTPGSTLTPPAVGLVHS
T1 sequence (Q8HZ48 19-580): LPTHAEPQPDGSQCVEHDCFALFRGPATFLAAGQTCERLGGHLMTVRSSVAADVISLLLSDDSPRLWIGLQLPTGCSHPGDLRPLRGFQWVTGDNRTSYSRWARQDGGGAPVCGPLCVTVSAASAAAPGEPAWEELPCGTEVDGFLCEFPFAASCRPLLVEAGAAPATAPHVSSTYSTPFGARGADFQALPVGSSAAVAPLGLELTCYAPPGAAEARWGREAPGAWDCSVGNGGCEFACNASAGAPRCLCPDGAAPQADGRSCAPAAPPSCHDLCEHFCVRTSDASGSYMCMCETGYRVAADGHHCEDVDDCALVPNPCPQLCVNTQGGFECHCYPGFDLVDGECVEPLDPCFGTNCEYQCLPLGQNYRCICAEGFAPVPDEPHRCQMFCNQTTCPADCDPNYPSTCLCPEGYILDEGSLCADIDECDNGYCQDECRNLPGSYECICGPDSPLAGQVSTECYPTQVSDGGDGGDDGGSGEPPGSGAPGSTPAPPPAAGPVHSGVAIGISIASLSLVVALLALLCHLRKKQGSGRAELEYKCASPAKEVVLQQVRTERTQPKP

For “PF4: moderately cationic and hydrophobic major protein constituent of platelet α-granules, 7.8 kD; human PF4 purified from outdated platelets”, the “fold acceleration of APC generation by full-length rabbit TM” value with full-length rabbit TM was determined as 4 fold. Besides, the “fold acceleration of APC generation by GAG- TM” value with GAG- TM (setting [7]) amounted to 4 fold. For the same substance, in the data set on GAG- TM (several Ca2+ concentrations, FIG. 2), the “effect of PF4 on Ca2+ dependence of APC generation by GAG- variant” value is “increases APC generation at all Ca^2+ concentrations but does not shift the overall shape of the curve”. In addition, the “fold acceleration of APC generation by GAG+ TM” value with GAG+ TM [1] (setting [7]) is 25 fold. The “acceleration of GAG+ TM by PF4 relative to full-length rabbit TM and GAG- TM (fold-over-baseline basis)” value with GAG+ TM [1] (fold-over-baseline comparison) is “more than six times as much”. Moreover, in the data set with GAG+ TM [1] (in the presence of 15% defibrinated plasma), the “fold acceleration of APC generation by GAG+ TM in plasma” value is given as 10 fold. In the data set with THR, the “effect upon TM-independent activation of protein C by THR” value is “essentially no effect”. Moreover, the “APC generation in the absence of added THR” value in the data set with TM [2] was “neither PF4 alone nor PF4 together with TM generated APC”. Also, the “PF4 concentration optimum for APC generation, PAEC, 15% serum” value in [3] (15% (v/v) bovine serum, 10 nM THR) amounted to 33 µg/mL. For the same substance, in data set [3] (15% (v/v) bovine serum, 10 nM THR, at 33 μg/ml PF4), the “fold increase in APC generation over baseline, PAEC, 15% serum” value came out at 10 fold. Moreover, the “PF4 concentration optimum for APC generation, PAEC, no serum” value in data set [3] (PBS, absence of added serum, 2 nM THR) turned out to be 3.3 µg/mL. In the data set on APC, the “effect on APC detection by chromogenic substrate” value is listed as “did not diminish or augment APC detection”. For the same substance, the “fold increase in the amount of APC formed, exogenous TM plus PF4 versus PF4 alone using endogenous TM” value in the data set with TM [4] was 3-8 fold. Further, the “APC generation in the absence of Ca2+” value with GAG+ TM [5] (0 calcium, buffers with 1 mM EDTA, GAG+ and GAG- forms of TM) is “allows both the GAG+ and GAG- forms of TM to generate APC even in the absence of Ca^2+”. Moreover, the “Ca2+ optimum of APC generation by GAG+ TM with PF4 added” value in the data set with GAG+ TM [5] (PF4 added, FIG. 2) worked out at 0.5 mM.
With chondroitin sulfate A, the “acceleratory effect upon APC generation by thrombomodulin (GAG+ TM)” value (from here on “acceleratory effect upon APC generation”) on GAG+ TM [1] is recorded as “no such effect”.
As for chondroitin sulfate E, the “acceleratory effect upon APC generation” value at GAG+ TM [1] is recorded as “no such effect”. In data set [6], the “reversal of MBP inhibition of APC generation” value is “reversed”.
Consider heparin, for which the “acceleratory effect upon APC generation” value on GAG+ TM [1] is “no such effect”. The “reversal of MBP inhibition of APC generation” value in data set [6] was “reversed”.
Turning to poly-L-lysine, the “fold acceleration of APC generation by full-length rabbit TM” value at full-length rabbit TM was 2.5 fold. Besides, the “acceleratory effect upon APC generation” value on GAG+ TM [1] is “can be replicated”.
The corresponding values for protamine sulfate are 2.5 fold and “can be replicated”.
As for “thrombospondin: anionic protein; major constituent of platelet α-granules”, the “acceleratory effect upon APC generation” value with GAG+ TM [1] is reported as “no such effect”.
